# Several values for one entry are separate records, joined by “and”; a condition that tells them apart may be missing. Equal values may be shown once. Read-outs that look alike come from different tables or passages of the source.
# How the values were obtained:
# [1] = test system: human mesenchymal stem cells (hMSCs); assay: Necrosis of human MSCs (apoptosis kit, annexin V-FITC / SYTOX green); details: for necrotic cell percentage of hMSCs: 300 μM H2O2 treated
# [2] = test system: mouse mesenchymal stem cells (mMSCs)
# Protocol: Mouse mesenchymal stem cells (MSCs) were purchased from Cyagen (Strain C57BL/6 Mouse Mesenchymal Stem Cells, MUBMX-01001, Cyagen, USA). Cells were cultured in a humidified incubator (Symphony 5.3A CO2 incubator, VWR, USA) at 37° C. with 5% CO2. MSCs basal medium (PT-3238, Lonza) with MSCGM™ SingleQuots supplement kit (PT-4105, Lonza) was used for hMSC culture, and MesenCult™ Expansion kit (5513, [sequence] Technologies, Canada) was used for mMSC culture. Both media were supplemented with 1% penicillin-streptomycin (15140122, ThermoFisher Scientific, USA) to prevent cell contamination during culture. Basal MSCs were stained with either Hoechst (Hoechst 33342, H3570, ThermoFisher Scientific, USA) for 10 minutes or cell tracker (C2102, CellTracker™ green BODIPY™ dye, ThermoFisher Scientific, USA) for 15 minutes. In all cases, adhesive cells were detached using Trypsin/EDTA (CC3232, Lonza) at 37° C. for 10 minutes. The size of trypsinized cells was measured by the analytical tool provided in the Olympus cellSens Dimension software.
# [3] = test system: human mesenchymal stem cells (hMSCs); details: 300 μM H2O2, 3 hours (FIG. 19B)
# Protocol: Cell culture and staining. Human mesenchymal stem cells (MSCs) were derived from a person and purchased from Lonza (Lonza, 0000471980). […] Cells were cultured in a humidified incubator (Symphony 5.3A CO2 incubator, VWR, USA) at 37° C. with 5% CO2. MSCs basal medium (PT-3238, Lonza) with MSCGM™ SingleQuots supplement kit (PT-4105, Lonza) was used for hMSC culture, and MesenCult™ Expansion kit (5513, [sequence] Technologies, Canada) was used for mMSC culture. Both media were supplemented with 1% penicillin-streptomycin (15140122, ThermoFisher Scientific, USA) to prevent cell contamination during culture. Basal MSCs were stained with either Hoechst (Hoechst 33342, H3570, ThermoFisher Scientific, USA) for 10 minutes or cell tracker (C2102, CellTracker™ green BODIPY™ dye, ThermoFisher Scientific, USA) for 15 minutes. In all cases, adhesive cells were detached using Trypsin/EDTA (CC3232, Lonza) at 37° C. for 10 minutes. The size of trypsinized cells was measured by the analytical tool provided in the Olympus cellSens Dimension software.
# [4] = test system: human mesenchymal stem cells (hMSCs)
# Protocol: Senescent cell model and staining. hMSCs or mMSCs senescence was induced chemically using hydrogen peroxide or using X-ray radiation. The medium containing hydrogen peroxide (H2O2) was prepared by diluting 30% H2O2 solution (H1009, Sigma, USA) with MSCs culture medium to desired concentrations. For the H2O2 treatment experiments, the MSCs were cultured in the medium containing H2O2 at 37° C. for 3 hours. After that, the MSCs were washed with 1×DPBS 2 times and cultured in the fresh media for a variable number of days before analysis. For X-ray radiation treatment, MSCs were placed on a rotating table and exposed to 1 gray (Gy), 4 Gy, or 6 Gy radiation. After treatment, cells were cultured for a variable number of days before analysis. The senescent cells were identified by the senescence detection kit (K320, BioVision, USA), which targets senescence-associated β-galactosidase (SA-β-gal) activity, following the manufacturer's provided protocol. […] For the experiments using the mixture of basal and H2O2-treated hMSCs, the H2O2-treated hMSCs were stained with cell tracker (C34551, CellTracker™ orange CMRA Dye™ dye, ThermoFisher Scientific, USA), while basal hMSCs were stained with Hoechst for 10 minutes to differentiate two cell populations.
# Cellular senescence induction of human MSCs. Hydrogen peroxide (H2O2) was used to induce cellular senescence of human MSCs. We tested three H2O2 concentrations: 100, 200, and 300 μM. Concentrated H2O2 (100×) was prepared and was added to hMSC culture media using a 1 to 100 dilution, after which, hMSCs were cultured in H2O2 contained medium in a 37° C. incubator for three hours. After H2O2 treatment, the H2O2 contained medium was withdrawn and the culture wells were washed with DPBS two times. Fresh culture medium was then added to cells for 1, 4, and 7 days post-culture. hMSCs were detached using Trypsin/EDTA, then labeled with a senescence detection kit in a 37° C. incubator overnight following the manufacturer's recommended protocol (K320, BioVision, USA). The senescence kit targets senescence-associated β-galactosidase (SA-β-gal) activity within cells. The SA-β gal^+ cells and total cells were counted to estimate the senescence cell ratio. […] For the experiment to mix basal hMSCs with H2O2 treated hMSCs, the basal hMSCs followed the same culture protocol, but without H2O2 treatment.
# [5] = test system: mouse mesenchymal stem cells (mMSCs); details: 150 μM H2O2; each timepoint including 24 hours after treatment
# Protocol: Cellular senescence induction of mouse MSCs. […] At each timepoint, mMSCs were labeled with a senescence detection kit in a 37° C. incubator overnight. The senescence cell ratio was calculated by dividing the SA-β gal^+ cells over the total number of cells counted.
# [6] = 300 μM H2O2 treated hMSCs, cultured 7 days, stored at 4° C. another 2 days (FIG. 19B)
# [7] = 150 μM H2O2 for three hours, after culturing for 1 day
structure (smiles),measurement,setting,value
"OO [H2O2, hydrogen peroxide]",percentage of necrotic cells,[1]; [6],37%
same,percentage of viable cells,[1]; [6],11.3%
same,necrotic cell percentage of hMSCs,[1]; before storage at 4° C.,25%
same,necrotic cell percentage of hMSCs,[1]; stored at 4° C. refrigerator for 2 days,56%
same,increase of size compared to basal mMSCs,[2]; [7],3.5 μm
same,size of mMSCs,[2]; [7],16.8+/−2.5 μm
same,purity of cells >15 μm,"[2]; H2O2 (150 μM) treated mMSCs, sample input",43.5%
same,size of hMSCs,[3],29.4+/−3.2 μm
same,percentage of senescent hMSCs,"[4]; 300 μM H2O2 for 3 hours, 1 day post-treatment",9.9%
same,percentage of senescent hMSCs,"[4]; 300 μM H2O2 for 3 hours, 3 days post-treatment",16.5%
same,percentage of senescent hMSCs (senescence ratio),"[4]; 300 μM H2O2 for 3 hours, 7 days post-treatment",~50% and 57.7%
same,percentage of senescent cells,[4]; [6],51.7%
same,senescence ratio of mMSCs versus cells without H2O2 treatment,[5],higher

# Reference: patent US20240390902A1, “METHODS AND SYSTEMS FOR SORTING BIOLOGICAL PARTICLES” (Newomics Inc., priority 2017, published 2024)
